Consider eight compounds from US12390444B2, “Stabilizing vitamin C topical formulations” (MF Beauty Partners LLC, priority 2020, dated 2025).

Series [1] is described as follows: Solubility of optional additional components in non-aqueous solvents. Format: physicochemical. An excerpt:
Additional ingredients were chosen for their compatibility with (e.g., miscibility in) 1,3 propanediol, 1,2 propanediol, and 1,3 butanediol.

For series [2] the following is noted: most solvents; cited from earlier work.
Series [3] relates to skin. The note with it: 4% HQ versus 5% Vitamin C; cited from earlier work.
Series [4] relates to skin. The note with it: in vivo; cited from earlier work.
How the values of series [5] were obtained: This example was reproduced.
All mixtures were heated to 85° C.

In another series the test system is erythema (skin redness). Particulars: concentrations of 0.2%; cited from earlier work.

For the compound `COc1cc(CC(C(C)=O)C(C)=O)ccc1O` [Acetyl zingerone], the “solubility of acetyl zingerone” value in series [1] (0.5-1%, 1,3 propanediol, 1,2 propanediol and 1,3 butanediol) is “readily soluble”.
Consider `O=C(O)CCCCCCCC(=O)O` [AzA, Azelaic acid], for which, in series [1] (1,3 propanediol), the “concentration of AzA that can be solubilized” value was “up to 10%” and the “solubility of AzA in presence of hydroxyethyl urea” value is reported as “slightly increased”. In series [1] (with 10% AA, 5% U in a 1,3 propanediol base), the “AzA solubilized together with AA and U” value was 7.5%. For the same compound, the “solubility of AzA” value in series [2] is “very poorly soluble”.
Consider `Oc1ccc(O)cc1` [HQ, hydroquinone], for which, in the series with skin [3], the improvement is listed as 93% and the side-effects is on record as 68.7%.
As to `CC(C)(CO)[C@@H](O)C(=O)NCCCO` [Panthenol], the “concentration at which inhibition of transepidermal water loss is apparent” value with skin [4] is on record as at least 1%.
Consider `NC(N)=O` [U, urea], for which the “maximum concentrations soluble before urea starts to precipitate (the ceiling)” value in series [5] (ascorbic acid together with urea in propylene glycol, butylene glycol and propanediol) stood at 20%.
Regarding `O=C1O[C@H]([C@@H](O)CO)C(O)=C1O` [ascorbic acid, L-ascorbic acid], the degradation on heating entry in series [5] is recorded as “showed signs of degradation”. The improvement in the series on skin [3] is given as 62.5%.
For `CC1(C)[C@@H](O[C@H]2O[C@H](C(=O)O)[C@@H](O)[C@H](O)[C@H]2O[C@@H]2O[C@H](C(=O)O)[C@@H](O)[C@H](O)[C@H]2O)CC[C@]2(C)[C@H]3C(=O)C=C4[C@@H]5C[C@@](C)(C(=O)O)CC[C@]5(C)CC[C@@]4(C)[C@]3(C)CC[C@@H]12` [glycyrrhizic acid, Glycyrrhizic acid], in series [1] (1,3-propanediol), the “solubility of glycyrrhizic acid” value is “shows solubility”.
In the case of Madecassoside, the “reduction of erythema (skin redness), clinical data” value in the series on erythema (skin redness) was “desirable ability to reduce erythema”. Further, the solubility of madecassoside entry in series [1] (concentration of 0.2%, 1,3 propanediol, 1,2 propanediol and 1,3 butanediol) was “soluble”.
